Assay results taken from ChEMBL document CHEMBL1147487, “Synthesis and evaluation of substrate-mimicking cytosolic phospholipase A2 inhibitors--reducing the lipophilicity of the arachidonyl chain isostere” (Bioorg Med Chem Lett, 2004).

Tests used:
HL-60 = assay: Inhibition of [3H]Arachidonic acid production by stimulated HL60 (human leukemia) cells.; format: functional, cell-based
[1] = In vitro inhibition of human recombinant cytosolic phospholipase A2 (c-PLA2).

O=C(COc1ccc(OCCCCCc2ccccc2)cc1)COc1ccc(C(=O)O)cc1
IC50 (HL-60): 2600 nM
IC50 [1]: 460 nM

O=C(COc1ccc(C(=O)O)cc1)COc1ccc(C(=O)NCCCCc2ccccc2)cc1
IC50 [1]: 20000 nM

O=C(COc1ccc(OCc2ccc(Cl)c(Cl)c2)cc1)COc1ccc(C(=O)O)cc1
IC50 (HL-60): 2000 nM
IC50 [1]: 250 nM

CCOCCCCCCCOc1ccc(OCC(=O)COc2ccc(C(=O)O)cc2)cc1
IC50 [1]: 1700 nM

O=C(COc1ccc(OCCCCCc2ccco2)cc1)COc1ccc(C(=O)O)cc1
IC50 (HL-60): 4800 nM
IC50 [1]: 590 nM

O=C(COc1ccc(C(=O)O)cc1)COc1ccc(-c2noc(-c3ccc(Cl)c(Cl)c3)n2)cc1
IC50 (HL-60): 4700 nM
IC50 [1]: 40 nM

O=C(COc1ccc(SCCCCCc2ccccc2)cc1)COc1ccc(C(=O)O)cc1
IC50 (HL-60): 5800 nM
IC50 [1]: 80 nM

O=C(COc1ccc(SCCCCCc2ccco2)cc1)COc1ccc(C(=O)O)cc1
IC50 (HL-60): 1000 nM
IC50 [1]: 80 nM

CCCCCCCCCCOc1ccc(OCC(=O)COc2ccc(C(=O)O)cc2)cc1
IC50 [1]: 30 nM

O=C(COc1ccc(C(=O)O)cc1)COc1ccc(C(=O)OCCCCCc2ccccc2)cc1
IC50 (HL-60): 1300 nM
IC50 [1]: 50 nM

O=C(COc1ccc(C(=O)O)cc1)COc1ccc(-c2noc(CCCCc3ccccc3)n2)cc1
IC50 (HL-60): 760 nM
IC50 [1]: 270 nM

O=C(COc1ccc(C(=O)O)cc1)COc1ccc2c(c1)C(=O)N(Cc1ccc(Cl)c(Cl)c1)C2=O
IC50 (HL-60): 1000 nM
IC50 [1]: 560 nM

O=C(COc1ccc(OCCCCSc2nc3ccccc3o2)cc1)COc1ccc(C(=O)O)cc1
IC50 (HL-60): 1100 nM
IC50 [1]: 140 nM

O=C(COc1ccc(C(=O)O)cc1)COc1ccc([S+]([O-])CCCCCc2ccccc2)cc1 (configuration not stated)
IC50 (HL-60): 18000 nM
IC50 [1]: 1800 nM

O=C(COc1ccc(C(=O)O)cc1)COc1ccc(-c2noc(Cc3ccc(Cl)c(Cl)c3)n2)cc1
IC50 (HL-60): 2700 nM
IC50 [1]: 90 nM

Cn1ccnc1SCCCCOc1ccc(OCC(=O)COc2ccc(C(=O)O)cc2)cc1
IC50 [1]: 63000 nM

O=C(COc1ccc(OCCCCCC2CCCO2)cc1)COc1ccc(C(=O)O)cc1 (configuration not stated)
IC50 [1]: 5200 nM

O=C(COc1ccc(C(=O)O)cc1)COc1ccc(S(=O)(=O)CCCCCc2ccccc2)cc1
IC50 (HL-60): 5200 nM
IC50 [1]: 1000 nM

O=C(COc1ccc(C(=O)O)cc1)COc1ccc2c(c1)C(=O)N(CCCCc1ccccc1)C2=O
IC50 (HL-60): 760 nM
IC50 [1]: 180 nM

O=C(COc1ccc(SCCCCSc2nccs2)cc1)COc1ccc(C(=O)O)cc1
IC50 (HL-60): 1100 nM
IC50 [1]: 760 nM

CN(CCc1ccccc1)C(=O)CSc1ccc(OCC(=O)COc2ccc(C(=O)O)cc2)cc1
IC50 [1]: 34000 nM

O=C(COc1ccc(SCCCCC(=O)N2CCCCC2)cc1)COc1ccc(C(=O)O)cc1
IC50 [1]: 12000 nM
